{"source": "patent US11602520B2", "about": "“c-Met regulatory composition and its method for treating liver disease” (priority 2020, dated 2023)", "key": {"[1]": {"system": "Normal hepatocytes of FL83B mice", "experiment": "Cell viability analysis (1), normal hepatocytes, MTS kit", "format": "cell-based", "conditions": "for Cell viability (%, relative to the blank group): 24 hours", "description": "(§1) Normal hepatocytes of FL83B mice are divided into several groups (FL83B 1×10^4 cells/well), an amount of cells in each of the groups is treated under different conditions respectively and cultured for 24 hours. Then, the commercially available MTS cell viability analysis kit (CellTiter-Glo® One Solution Assay) is used to analyze the cell viability of each of the groups, the treatment condition of each of the groups of cells and the corresponding survival rate are shown in Table 1 to Table 3 below."}, "[2]": {"system": "Normal hepatocytes of FL83B mice treated with 10 mM acetaminophen (damaged hepatic cells)", "experiment": "Cell viability analysis (2), hepatocytes damaged with 10 mM acetaminophen", "format": "cell-based", "conditions": "after acetaminophen damage", "description": "(§2) Normal hepatocytes of FL83B mice are divided into several groups (FL83B 1×10^4 cells/well), and treated with 10 mM acetaminophen for 24 hours respectively to make the hepatic cells in a damaged state, the acetaminophen is removed and then the hepatic cells are treated with different concentrations of the Antrodin A and/or the DMB for 24 hours. Then, the commercially available MTS cell viability analysis kit (CellTiter-Glo® One Solution Assay) is used to analyze the cell viability of each of the groups, the treatment condition of each of the groups of cells and the corresponding survival rate are shown in Table 4 to Table 6 below."}, "[3]": {"system": "c-Met", "experiment": "Gene expression analysis, real-time qPCR, c-Met", "format": "cell-based, mice", "description": "as §2\n(§3) Real-time qPCR kits are used to analyze the gene expression in cells treated with different concentrations of the Antrodin A and the DMB in Example 2, and the results are shown in Tables 7 to 9 below."}, "[4]": {"system": "Notch-2", "experiment": "Gene expression analysis, real-time qPCR, Notch-2 RNA", "format": "cell-based, mice", "description": "as §2, §3"}, "[5]": {"experiment": "Cell viability analysis (1), normal hepatocytes, MTS kit", "format": "cell-based, mice", "conditions": "mouse, FL83B normal hepatocytes, 24 hours, read-out: Cell viability (%, relative to the blank group)", "description": "as §1"}}, "data": [{"smiles": "CC(C)=CCOc1ccc(C2=C(CC(C)C)C(=O)OC2=O)cc1", "note": "[Antrodin A]", "values": [{"measurement": "Cell viability (%, relative to the blank group)", "setting": "[1]; Antrodin A 8.75 ppm", "result": "95.8 ± 4.8", "unit": "%"}, {"measurement": "Cell viability (%, relative to the blank group)", "setting": "[1]; Antrodin A 17.5 ppm", "result": "107.1 ± 1.2", "unit": "%"}, {"measurement": "Cell viability (%, relative to the blank group)", "setting": "[1]; Antrodin A 35 ppm", "result": "106.8 ± 6.5", "unit": "%"}, {"measurement": "Cell viability (%, relative to the blank group)", "setting": "[1]; Antrodin A 70 ppm", "result": "108.5 ± 5.7", "unit": "%"}, {"measurement": "Cell viability (%, relative to the blank group)", "setting": "[1]; Antrodin A 140 ppm", "result": "50.8 ± 4.4", "unit": "%"}, {"measurement": "activity and survival rate of the normal hepatic cells (in words)", "setting": "[1]; concentration of 8.75 to 70 ppm", "result": "capable of effectively maintaining and enhancing the activity and survival rate of the normal hepatic cells"}, {"measurement": "toxicity to hepatic cells (in words)", "setting": "[1]; concentration of 140 ppm", "result": "toxic to hepatic cells"}, {"measurement": "repair of damaged hepatic cells (in words)", "setting": "[2]", "result": "capable of repairing the damaged hepatic cells and increasing the activity of the hepatic cells"}, {"measurement": "Cell viability (%, relative to the blank group)", "setting": "[2]; Antrodin A 17.5 ppm, 24 hours", "result": "101.9 ± 10.7", "unit": "%"}, {"measurement": "Cell viability (%, relative to the blank group)", "setting": "[2]; Antrodin A 35 ppm, 24 hours", "result": "90.2 ± 9.9", "unit": "%"}, {"measurement": "Cell viability (%, relative to the blank group)", "setting": "[2]; Antrodin A 70 ppm, 24 hours", "result": "102.7 ± 3.3", "unit": "%"}, {"measurement": "expression level of c-Met in damaged hepatic cells (in words)", "setting": "[3]", "result": "increase the expression levels of c-Met and Notch"}, {"measurement": "expression level of Notch in damaged hepatic cells (in words)", "setting": "[4]", "result": "increase the expression levels of c-Met and Notch"}]}, {"smiles": "COc1cc(C)c(OC)c2c1OCO2", "note": "[DMB, 4,7-Dimethoxy-5-methyl-1,3-benzodioxole]", "values": [{"measurement": "viability at 24 h, 1.25 ppm", "setting": "[5]; DMB 1.25 ppm", "result": "112 ± 2.4", "unit": "%"}, {"measurement": "viability at 24 h, 2.5 ppm", "setting": "[5]; DMB 2.5 ppm", "result": "114 ± 1.5", "unit": "%"}, {"measurement": "viability at 24 h, 5 ppm", "setting": "[5]; DMB 5 ppm", "result": "115 ± 2", "unit": "%"}, {"measurement": "viability at 24 h, 10 ppm", "setting": "[5]; DMB 10 ppm", "result": "113 ± 3.4", "unit": "%"}, {"measurement": "viability at 24 h, 20 ppm", "setting": "[5]; DMB 20 ppm", "result": "111 ± 4", "unit": "%"}, {"measurement": "toxicity to the normal hepatic cells (in words)", "setting": "[1]; various concentrations", "result": "does not cause toxicity to the normal hepatic cells"}, {"measurement": "viability at 2.5 ppm", "setting": "[2]; Mus musculus, FL83B, DMB 2.5 ppm, 24 hours, read-out: Cell viability (%, relative to the blank group)", "result": "114 ± 3.9", "unit": "%"}, {"measurement": "viability at 5 ppm", "setting": "[2]; Mus musculus, FL83B, DMB 5 ppm, 24 hours, read-out: Cell viability (%, relative to the blank group)", "result": "104 ± 4.4", "unit": "%"}, {"measurement": "viability at 10 ppm", "setting": "[2]; Mus musculus, FL83B, DMB 10 ppm, 24 hours, read-out: Cell viability (%, relative to the blank group)", "result": "78.2 ± 8.8", "unit": "%"}, {"measurement": "viability at 17.5 ppm", "setting": "[2]; Mus musculus, FL83B, DMB 17.5 ppm, 24 hours, read-out: Cell viability (%, relative to the blank group)", "result": "103 ± 7.7", "unit": "%"}, {"measurement": "repair of damaged hepatic cells (in words)", "setting": "[2]", "result": "capable of repairing the damaged hepatic cells and increasing the activity of the hepatic cells"}, {"measurement": "expression level of c-Met in damaged hepatic cells (in words)", "setting": "[3]", "result": "increase the expression levels of c-Met and Notch"}, {"measurement": "expression level of Notch in damaged hepatic cells (in words)", "setting": "[4]", "result": "increase the expression levels of c-Met and Notch"}]}]}
